Results published in the supplement of paper PMC10307832.

Tests used:
Experiment in all cases: relative viability (nuclei count vs DMSO), 5 days (fraction); higher = more cells survive
Alisertib + Bortezomib = compound: COc1cc(Nc2ncc3c(n2)-c2ccc(Cl)cc2C(c2c(F)cccc2OC)=NC3)ccc1C(=O)O [Alisertib] + CC(C)C[C@H](NC(=O)[C@H](Cc1ccccc1)NC(=O)c1cnccn1)B(O)O [Bortezomib] (partner 0.002 µM)
In short: (§1)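 Nuclei were stained with Hoechst during a one-step fixation (final 0.05% Triton X-100, 1% formaldehyde, 1 ug/ml Hoechst) carried out 5 days after dosing, then counted on 4× images. The cells, lung cancer lines in 1536-well plates, had been dosed by pin tool the day after seeding with one drug alone or a fixed anchor-drug dose plus five library-drug doses (not always all listed) in √10 steps. Relative viability is the nuclei count in treated wells divided by that in vehicle wells, and each value is the median of duplicate plates.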

Alisertib + Navitoclax = compound: COc1cc(Nc2ncc3c(n2)-c2ccc(Cl)cc2C(c2c(F)cccc2OC)=NC3)ccc1C(=O)O [Alisertib] + CC1(C)CCC(c2ccc(Cl)cc2)=C(CN2CCN(c3ccc(C(=O)NS(=O)(=O)c4ccc(N[C@H](CCN5CCOCC5)CSc5ccccc5)c(S(=O)(=O)C(F)(F)F)c4)cc3)CC2)C1 [Navitoclax] (partner 0.5 µM)
In short: as §1

Alisertib + Luminespib = compound: COc1cc(Nc2ncc3c(n2)-c2ccc(Cl)cc2C(c2c(F)cccc2OC)=NC3)ccc1C(=O)O [Alisertib] + CCNC(=O)c1noc(-c2cc(C(C)C)c(O)cc2O)c1-c1ccc(CN2CCOCC2)cc1 [Luminespib] (partner 0.01 µM)
In short: as §1

Alisertib + Dasatinib = compound: COc1cc(Nc2ncc3c(n2)-c2ccc(Cl)cc2C(c2c(F)cccc2OC)=NC3)ccc1C(=O)O [Alisertib] + Cc1nc(Nc2ncc(C(=O)Nc3c(C)cccc3Cl)s2)cc(N2CCN(CCO)CC2)n1 [Dasatinib] (partner 0.075 µM)
In short: as §1

Row | Cell Line | relative viability (Alisertib + Bortezomib; first compound 0.005 µM) | relative viability (Alisertib + Bortezomib; first compound 0.01581 µM) | relative viability (Alisertib + Bortezomib; first compound 0.05 µM) | relative viability (Alisertib + Bortezomib; first compound 0.1581 µM) | relative viability (Alisertib + Bortezomib; first compound 0.5 µM) | relative viability (Alisertib + Navitoclax; first compound 0.005 µM) | relative viability (Alisertib + Navitoclax; first compound 0.01581 µM) | relative viability (Alisertib + Navitoclax; first compound 0.05 µM) | relative viability (Alisertib + Navitoclax; first compound 0.1581 µM) | relative viability (Alisertib + Navitoclax; first compound 0.5 µM) | relative viability (Alisertib + Luminespib; first compound 0.005 µM) | relative viability (Alisertib + Luminespib; first compound 0.01581 µM) | relative viability (Alisertib + Luminespib; first compound 0.05 µM) | relative viability (Alisertib + Luminespib; first compound 0.1581 µM) | relative viability (Alisertib + Luminespib; first compound 0.5 µM) | relative viability (Alisertib + Dasatinib; first compound 0.005 µM) | relative viability (Alisertib + Dasatinib; first compound 0.01581 µM) | relative viability (Alisertib + Dasatinib; first compound 0.05 µM) | relative viability (Alisertib + Dasatinib; first compound 0.1581 µM) | relative viability (Alisertib + Dasatinib; first compound 0.5 µM)
1 | 201T | 1.05 | 1.07 | 1.08 | 1.07 | 0.694 | 1.25 | 1.19 | 1.21 | 1.07 | 0.425 | 1.16 | 0.971 | 0.816 | 0.576 | 0.362 | 0.527 | 0.556 | 0.583 | 0.327 | 0.284
2 | A-427 | 0.89 | 0.818 | 0.751 | 0.149 | 0.15 | 0.897 | 0.907 | 0.26 | 0.167 | 0.158 | 0.916 | 0.576 | 0.243 | 0.141 | 0.209 | 0.645 | 0.565 | 0.291 | 0.139 | 0.128
3 | ABC-1 | 0.279 | 0.269 | 0.315 | 0.278 | 0.278 | – | – | – | – | – | – | – | 0.491 | 0.366 | 0.136 | 0.46 | 0.436 | 0.434 | 0.226 | 0.243
4 | BEN | 0.691 | 0.867 | 0.398 | 0.229 | 0.2 | 0.0634 | 0.063 | 0.0731 | 0.0469 | 0.0558 | 0.309 | 0.161 | 0.133 | 0.115 | 0.141 | 0.499 | 0.39 | 0.296 | 0.178 | 0.138
5 | CAL-12T | 0.768 | 0.489 | 0.296 | 0.221 | 0.201 | 1.15 | 0.568 | 0.208 | 0.141 | 0.165 | 0.412 | 0.205 | 0.1 | 0.169 | 0.188 | 0.275 | 0.158 | 0.0813 | 0.113 | 0.0899
6 | COR-L23 | 0.895 | 0.789 | 0.647 | 0.137 | 0.131 | 0.921 | 0.965 | 0.576 | 0.198 | 0.105 | 0.585 | 0.568 | 0.303 | 0.0956 | 0.0981 | 0.486 | 0.439 | 0.23 | 0.0935 | 0.0796
7 | COR-L 105 | 0.757 | 0.875 | 0.447 | 0.27 | 0.218 | 0.909 | 0.686 | 0.532 | 0.273 | 0.287 | 0.773 | 0.685 | 0.56 | 0.382 | 0.252 | 0.291 | 0.296 | 0.293 | 0.194 | 0.177
8 | Calu-6 | 0.89 | 0.57 | 0.316 | 0.189 | 0.195 | 0.713 | 0.377 | 0.13 | 0.0974 | 0.107 | – | – | – | – | – | – | – | – | – | –
9 | ChaGo-K-1 | 0.88 | 0.696 | 0.322 | 0.276 | 0.232 | 1.01 | 0.8 | 0.313 | 0.286 | 0.239 | 0.565 | 0.451 | 0.258 | 0.169 | 0.217 | 0.488 | 0.6 | 0.277 | 0.165 | 0.162
10 | EBC-1 | 0.537 | 0.467 | 0.239 | 0.186 | 0.162 | 0.298 | 0.278 | 0.131 | 0.17 | 0.167 | – | – | – | – | – | – | – | – | – | –
11 | EKVX | 0.967 | 0.8 | 0.391 | 0.185 | 0.169 | 0.924 | 0.837 | 0.589 | 0.162 | 0.15 | 0.711 | 0.74 | 0.356 | 0.168 | 0.169 | 0.541 | 0.47 | 0.243 | 0.244 | 0.229
12 | EMC-BAC-2 | 0.91 | 0.947 | 0.579 | 0.229 | 0.243 | 1.08 | 0.978 | 0.362 | 0.296 | 0.18 | 1.09 | 0.967 | 0.395 | 0.292 | 0.23 | 0.315 | 0.221 | 0.185 | 0.161 | 0.128
13 | EPLC-272H | 0.794 | 0.856 | 0.79 | 0.135 | 0.13 | 1.11 | 0.962 | 0.368 | 0.346 | 0.147 | 0.275 | 0.166 | 0.122 | 0.112 | 0.134 | 0.304 | 0.365 | 0.382 | 0.0703 | 0.0736
14 | H3255 | 0.664 | 0.733 | 0.46 | 0.216 | 0.195 | 0.484 | 0.415 | 0.355 | 0.0997 | 0.0929 | 0.753 | 0.841 | 0.522 | 0.259 | 0.212 | 0.328 | 0.445 | 0.279 | 0.242 | 0.292
